Several values for one entry are separate records, joined by “and”; a condition that tells them apart may be missing. Equal entries are not always repeated.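 The compound was tested at five concentrations on cells cultured in 96-well plates, with a 48-hour exposure period. GI50: concentration for 50% inhibition of growth. TGI denotes the concentration required for complete inhibition of growth.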

Test systems include BT-549 breast; HCT-15 colon; HOP-92 NSCLC; LOX IMVI melanoma; M14 melanoma; MDA-MB-435; NCI-H460 lung; RXF 393 renal; SK-MEL-5 melanoma; UACC-257 melanoma.
What all share (experiment): NCI tumour cell line growth inhibition, 48 h

With `CCc1c2c(nc3ccc(OC(=O)OCc4ccc(B5OC(C)(C)C(C)(C)O5)cc4)cc13)-c1cc3c(c(=O)n1C2)COC(=O)[C@]3(O)CC`, the GI50 is less than 0.0291 µM with BT-549 breast; 0.127 µM in the assay on HCT-15 colon; 0.0269 µM with HOP-92 NSCLC; less than 0.01 µM in the assay with LOX IMVI melanoma; less than 0.01 µM in the assay on M14 melanoma; 0.0523 µM in the assay with MDA-MB-435. Also, the GI50 in the assay with NCI-H460 lung is less than 0.01 µM; in the assay on RXF 393 renal, 0.0136 µM; in the assay on SK-MEL-5 melanoma it was 0.0217 µM; with UACC-257 melanoma, 0.116 µM. Also, the TGI in the assay with BT-549 breast was 1.51 µM; in the assay with HCT-15 colon it was more than 100 µM; in the assay with HOP-92 NSCLC, 14.4 µM; with LOX IMVI melanoma, 0.196 µM; in the assay with M14 melanoma, 0.92 µM; with MDA-MB-435, 1.53 µM. Moreover, the TGI in the assay with NCI-H460 lung was 0.182 µM; in the assay with RXF 393 renal, 0.134 µM; in the assay on SK-MEL-5 melanoma, 0.118 µM; in the assay with UACC-257 melanoma it was 3.22 µM.
For the compound `Oc1ccccc1/C=N\Nc1ccccc1`, the GI50 in the assay on BT-549 breast is 3.19 µM; in the assay on HCT-15 colon it was 4.16 µM; in the assay with HOP-92 NSCLC, 10.7 µM; in the assay on LOX IMVI melanoma, 0.725 µM; in the assay with M14 melanoma it was 3.7 µM; with MDA-MB-435 it was 2.87 µM. Further, the GI50 with NCI-H460 lung was 3.36 µM; in the assay with RXF 393 renal, 19.1 µM; in the assay with SK-MEL-5 melanoma it was 3.59 µM; in the assay on UACC-257 melanoma, 31.1 µM. The TGI is 25.4 µM with BT-549 breast; 26.4 µM in the assay with HCT-15 colon; 42.8 µM in the assay with HOP-92 NSCLC; 12.5 µM in the assay on LOX IMVI melanoma; 19.4 µM in the assay with M14 melanoma; more than 100 µM with MDA-MB-435. The TGI in the assay with NCI-H460 lung was more than 100 µM; in the assay on RXF 393 renal, 77.9 µM; with SK-MEL-5 melanoma, 19.8 µM; in the assay with UACC-257 melanoma, more than 100 µM.
In the case of `CCCn1cc(/C=N\N=C2\C(=O)Nc3ccc(C)cc32)c2ccccc21`, the GI50 was 1.79 µM with BT-549 breast; 2.63 µM with HCT-15 colon; 1.87 µM in the assay on HOP-92 NSCLC; 1.26 µM with LOX IMVI melanoma; 1.92 µM in the assay on M14 melanoma; 1.5 µM in the assay on MDA-MB-435. Besides, the GI50 in the assay with NCI-H460 lung is 2.17 µM; with RXF 393 renal, 2.17 µM; in the assay on SK-MEL-5 melanoma, 2.86 µM; with UACC-257 melanoma it was 12.3 µM. The TGI turned out to be 6.33 µM in the assay with BT-549 breast; 42.2 µM in the assay with HCT-15 colon; 6.57 µM in the assay on HOP-92 NSCLC; 3.06 µM in the assay on LOX IMVI melanoma; 4.7 µM in the assay on M14 melanoma; 2.96 µM in the assay on MDA-MB-435. Besides, the TGI in the assay with NCI-H460 lung was 10.6 µM; with RXF 393 renal, 7.94 µM; in the assay with SK-MEL-5 melanoma, 13.5 µM; with UACC-257 melanoma it was 66.6 µM.
`C=C1C(=O)O[C@H]2C3OC3(C)CC/C=C(/C(=O)OC)[C@@H](OC(C)=O)[C@H](OC(=O)C3(C)OC3C)[C@H]12` (stereo partly drawn): the TGI is 2.27 µM in the assay on BT-549 breast; 2.78 µM and 32.2 µM and 2.13 µg/mL in the assay on HCT-15 colon; 3.13 µM and 1.26 µg/mL in the assay with HOP-92 NSCLC; 2.74 µM and 2.7 µM with LOX IMVI melanoma; 3.13 µM and 2.4 µM and 1.29 µg/mL in the assay on M14 melanoma; 3.95 µM and 4.99 µM with MDA-MB-435. Besides, the TGI is 11.1 µM and 9.89 µg/mL with NCI-H460 lung; 838 nM and 531 nM and 0.951 µg/mL in the assay with RXF 393 renal; 3.87 µM and 7.72 µM and 9.58 µg/mL with SK-MEL-5 melanoma; 2.96 µM and 1.33 µM in the assay on UACC-257 melanoma. For the same compound, the GI50 is 899 nM and 3.85 µM and 0.482 µg/mL in the assay with HCT-15 colon; 0.817 µg/mL with HOP-92 NSCLC; 1.36 µM and 1.24 µM in the assay on LOX IMVI melanoma; 1.5 µM and 850 nM and 0.499 µg/mL in the assay on M14 melanoma; 3.13 µM and 3.6 µg/mL in the assay with NCI-H460 lung; 364 nM and 190 nM and 0.407 µg/mL in the assay with RXF 393 renal. The GI50 was 1.88 µM and 1.91 µM and 2.6 µg/mL in the assay with SK-MEL-5 melanoma; 1.42 µM and 0.434 µM in the assay on UACC-257 melanoma.
As to `CN(C)C[C@@H]1CCn2cc(c3ccccc32)C2=C(C(=O)NC2=O)c2cn(c3ccccc23)CCO1`, the GI50 is 1.41 µM in the assay on BT-549 breast; 1.61 µM in the assay on HCT-15 colon; 0.446 µM in the assay with HOP-92 NSCLC; 1.63 µM in the assay with LOX IMVI melanoma; 1.03 µM in the assay on M14 melanoma; 1.46 µM in the assay on MDA-MB-435. Also, the GI50 with NCI-H460 lung was 1.48 µM; with RXF 393 renal, 1.77 µM; in the assay on SK-MEL-5 melanoma, 1.39 µM; with UACC-257 melanoma, 2.08 µM. Moreover, the TGI was 9.57 µM in the assay with BT-549 breast; more than 10 µM in the assay on HCT-15 colon; 6.31 µM in the assay on HOP-92 NSCLC; 3.44 µM in the assay on LOX IMVI melanoma; more than 10 µM in the assay on M14 melanoma; more than 10 µM in the assay on MDA-MB-435. In addition, the TGI was 5.73 µM with NCI-H460 lung, 5.17 µM in the assay with RXF 393 renal, 7.11 µM in the assay with SK-MEL-5 melanoma and more than 10 µM in the assay on UACC-257 melanoma.
As for `CN(C)c1ccc2cc3c(cc2c1)Oc1ccccc1N3.[Cl][Zn][Cl]`, the GI50 was 14.4 µM with BT-549 breast; 2.24 µM with HCT-15 colon; 2.59 µM with HOP-92 NSCLC; 1.6 µM with LOX IMVI melanoma; 4.73 µM in the assay on M14 melanoma; 1.98 µM in the assay on MDA-MB-435. For the same compound, the GI50 with NCI-H460 lung was 20.1 µM; in the assay with RXF 393 renal it was 3.28 µM; with SK-MEL-5 melanoma it was 3.16 µM; in the assay on UACC-257 melanoma, 3.16 µM. In addition, the TGI is 27.7 µM in the assay with BT-549 breast; 6.47 µM with HCT-15 colon; 8.33 µM in the assay on HOP-92 NSCLC; 3.22 µM in the assay with LOX IMVI melanoma; 18 µM with M14 melanoma; 4.19 µM in the assay on MDA-MB-435. Further, the TGI with NCI-H460 lung was 52.2 µM; in the assay with RXF 393 renal, 9.01 µM; with SK-MEL-5 melanoma it was 11.9 µM; in the assay on UACC-257 melanoma it was 9.36 µM.
With `COc1ccc(Cl)cc1Nc1nc(C(F)(F)F)ccc1C(=O)N/N=C/c1ccccc1Cl`, the GI50 was 1.79 µM in the assay on BT-549 breast; 0.754 µM in the assay on HCT-15 colon; 2.34 µM with HOP-92 NSCLC; 1.64 µM with LOX IMVI melanoma; 2.13 µM in the assay with M14 melanoma; 2.61 µM in the assay on MDA-MB-435. Further, the GI50 in the assay on NCI-H460 lung is 1.13 µM; in the assay on RXF 393 renal, 0.455 µM; with SK-MEL-5 melanoma it was 0.583 µM; in the assay on UACC-257 melanoma it was 1.82 µM. For the same compound, the TGI in the assay on BT-549 breast was 8.82 µM; with HCT-15 colon, more than 63.8 µM; in the assay on HOP-92 NSCLC it was 12.6 µM; in the assay with LOX IMVI melanoma, 12.8 µM; in the assay on M14 melanoma it was 19.4 µM; with MDA-MB-435, more than 27.7 µM. Also, the TGI was determined as 4.53 µM with NCI-H460 lung, 3.06 µM with RXF 393 renal, 2.96 µM with SK-MEL-5 melanoma and 4.62 µM with UACC-257 melanoma.
Consider `CCCCCCCCCCCCCC(=O)NO`, for which the TGI is 33.1 µM with BT-549 breast; 26.2 µM in the assay on HCT-15 colon; 43.6 µM in the assay on HOP-92 NSCLC; 15.5 µM in the assay with LOX IMVI melanoma; 36.2 µM with M14 melanoma; 67 µM with MDA-MB-435. In addition, the TGI came out at 38.3 µM in the assay on NCI-H460 lung, 19 µM in the assay with RXF 393 renal, 26.5 µM in the assay with SK-MEL-5 melanoma and 77.3 µM in the assay on UACC-257 melanoma.
For the compound `CCN(CC)CCOc1ccc(NC(=O)C(C(C)C)N2C(=O)/C(=C/c3ccc(Br)cc3)SC2=S)cc1` (stereo not drawn), the GI50 with BT-549 breast was 14.4 µM; with HCT-15 colon, 2.01 µM; in the assay with HOP-92 NSCLC, 2.53 µM; with LOX IMVI melanoma, 1.75 µM; in the assay on M14 melanoma, 2.07 µM; with MDA-MB-435, 2.1 µM. Further, the GI50 in the assay on NCI-H460 lung is 1.85 µM; with RXF 393 renal it was 5.6 µM; in the assay with SK-MEL-5 melanoma it was 3.71 µM; with UACC-257 melanoma, 2.2 µM. Further, the TGI turned out to be 28.5 µM with BT-549 breast; 4.31 µM with HCT-15 colon; 13.5 µM with HOP-92 NSCLC; 3.23 µM in the assay on LOX IMVI melanoma; 4.27 µM with M14 melanoma; 4.41 µM in the assay on MDA-MB-435. Moreover, the TGI with NCI-H460 lung is 3.51 µM; in the assay with RXF 393 renal, 19.1 µM; in the assay with SK-MEL-5 melanoma, 12.8 µM; in the assay on UACC-257 melanoma, 5.14 µM.
Consider `O=C(Nc1cccc(-n2ccc3c(NC(=O)c4ccccc4)nccc32)c1)c1ccc(Cl)c(Cl)c1`, for which the GI50 is 0.214 µM in the assay on BT-549 breast; 0.0879 µM in the assay on HCT-15 colon; 0.13 µM in the assay on HOP-92 NSCLC; 0.219 µM with LOX IMVI melanoma; 0.117 µM in the assay on M14 melanoma; 0.0275 µM in the assay with MDA-MB-435. The GI50 was 0.158 µM with NCI-H460 lung, 0.106 µM in the assay on RXF 393 renal, 0.0719 µM in the assay with SK-MEL-5 melanoma and 1.2 µM in the assay with UACC-257 melanoma. In addition, the TGI was 1.26 µM in the assay on BT-549 breast; 1.31 µM in the assay with HCT-15 colon; 2.12 µM in the assay on HOP-92 NSCLC; 1.57 µM in the assay on LOX IMVI melanoma; 0.802 µM in the assay on M14 melanoma; 0.103 µM in the assay on MDA-MB-435. In addition, the TGI in the assay on NCI-H460 lung was determined as 1.08 µM; in the assay on RXF 393 renal it was 0.639 µM; with SK-MEL-5 melanoma it was 0.347 µM; with UACC-257 melanoma it was 2.98 µM.
Take `COc1ccc2c(c1)C(=O)/C(=C/c1cccc(OCC(=O)c3ccc([N+](=O)[O-])cc3)c1)CO2`: the GI50 in the assay with BT-549 breast is 1.91 µM; with HCT-15 colon, 2.17 µM; with HOP-92 NSCLC, 3.16 µM; with LOX IMVI melanoma, 1.47 µM; with M14 melanoma, 2.19 µM; in the assay with MDA-MB-435, 2.32 µM. In addition, the GI50 in the assay with NCI-H460 lung is 3.2 µM; in the assay on RXF 393 renal, 1.89 µM; in the assay with SK-MEL-5 melanoma, 2.79 µM; with UACC-257 melanoma, 3.73 µM. The TGI with BT-549 breast was determined as 4.85 µM; with HCT-15 colon, 6.92 µM; in the assay with HOP-92 NSCLC, 15.8 µM; with LOX IMVI melanoma it was 2.88 µM; in the assay with M14 melanoma, 4.32 µM; in the assay on MDA-MB-435, 7.11 µM. The TGI in the assay with NCI-H460 lung was found to be 11.6 µM; in the assay with RXF 393 renal it was 4.32 µM; in the assay on SK-MEL-5 melanoma it was 8.05 µM; with UACC-257 melanoma it was 10.2 µM.

The values above are taken from PubChem BioAssay (NCI).
